Test [1] deals with intact cells in hippocampus and cortex. As to the kind of experiment: Ex.4 therapeutic HIE rat model: intact cell counting. Format: in vivo. The method, then:
Paraformaldehyde-fixed paraffin embedded samples of the removed brains were coronally sectioned at the same level of the hippocampus region in accordance to the Paxinos rat brain atlas (Paxinos and Watson 2007. In: The rat brain in stereotaxic coordinates, 6th edition). Thickness of sections was 5 μm. Hematoxylin-eosin staining was performed. Briefly, sections were deparaffinized in xylene and rehydrated in graded ethanol concentrations before staining. Slides were stained with hematoxylin, rinsed for a few seconds in water, then placed in 1% eosin and washed, dehydrated, and coverslipped.
Intact cell counting was performed on hematoxylin-eosin-stained sections of the rat pups brains at magnification 400× in 3 fields of the respective brain area. Countings were performed in cortex and hippocampus (regions: dentate gyrus (DG), subgranular zone (SGZ), cornu ammonis (CA1, CA2/CA3)). The sections were analyzed with the aid of a microscope (Olympus BX51, Olympus, Tokyo, Japan), an image scanner (DotSlide Digital Virtual Microscopy, Olympus, Germany) and ImageJ software (NIH, US).
Intact cells are uninjured. Injured cells are characterized by a pale eosinophilic staining along with non-uniform nuclear densities-shrunken, condensed, or pale and enlarged.
To study the therapeutic effect of estetrol, newborn rat pups were assigned to one of the following 6 groups at postnatal day 7: sham group (n=29), vehicle group (n=20), 1 mg/kg E4 group (n=16), 5 mg/kg E4 group (n=19), 10 mg/kg day E4 (n=17) and 50 mg/kg day E4 group (n=15). At postnatal day 7 animals were anesthetized with isoflurane (induction, 3.0%; maintenance, 1.5%), and the rat pups from vehicle and E4 groups passed through surgery encompassing left common carotid artery double ligation and cut. After surgery, the pups were returned to their dams and allowed to recover for 1 hour. The pups were then placed in a humidified hypoxic in vivo cabinet (CoyLab). Hypoxia was produced by the inhalation of 11%-8% of oxygen balanced by nitrogen at decreased concentration of oxygen for 20 minutes, followed by inhalation of 8% oxygen and 92% nitrogen at constant concentration for 35 minutes. All the manipulations were performed at 37° C.
Upon retrieval from the hypoxia chamber the rat pups were injected intraperitoneally either by vehicle (vehicle group) or by E4 (1 mg/kg, 5 mg/kg, 10 mg/kg or 50 mg/kg) in accordance to the group assignment. The animals from the sham group went through similar procedures but proceeded neither left common carotid artery ligation and cut followed by hypoxia nor vehicle or estetrol administration. Rat pups recovered with their dams until being sacrificed at postnatal day 14.

The next test deals with doublecortin (DCX). The test is described as follows: Ex.8 neuroprotective HIE rat model: doublecortin staining. The class given is in vivo. As to conditions: 5 mg/kg/day E4, DG. The method, then: Newborn rat pups were assigned to one of the following 14 groups from postnatal day 4 (FIG. 23(A)): Sham group (n=12), Vehicle group (n=17), 5 mg/kg/day E4 (n=13), 10 mg/kg/day E4 (n=10), 5 mg/kg/day E4+1.6 mg/kg/day PROG (n=11), 10 mg/kg/day E4+1.6 mg/kg/day PROG (n=11), 5 mg/kg/day E4+16 mg/kg/day PROG (n=11), 10 mg/kg/day E4+16 mg/kg/day PROG (n=11), 5 mg/kg/day E4+136 ng//kg/day E2 (n=11), 10 mg/kg/day E4+136 ng/kg/day E2 (n=11), 5 mg/kg/day E4+1.6 mg/kg/day PROG+136 ng/kg/day (n=13) E2, 10 mg/kg/day E4+1.6 mg/kg/day PROG+136 ng/kg/day E2 (n=16), 5 mg/kg/day E4+16 mg/kg/day PROG+136 ng/kg/day E2 (n=11), 10 mg/kg/day E4+16 mg/kg/day PROG+136 ng/kg/day groups (n=13). Intraperitoneal injections of the pups from study groups were performed from postnatal day 4 to postnatal day 7 inclusively. […]
The sections were heated in 10 mmol/L citrate buffer (pH 6.0) at 100° C. for 10 minutes. […] Samples were analyzed with the aid of a microscope (Olympus Vanox AHBT3, Olympus), and the ImageJ software 15 (NIH). The percentage of positively stained cells was quantified as a sum of positively stained either DCX or VEGF cells divided by the total number of DAPI positive cells expressed in percentage.

SMILES strings stand for the structures.

For `C[C@]12CC[C@@H]3c4ccc(O)cc4CC[C@H]3[C@@H]1[C@@H](O)[C@@H](O)[C@@H]2O` [E4, 1,3,5(10)-estratrien-3,15α,16α,17β-tetrol], the “number of intact cells per visual field” value in test [1] (1 mg/kg E4 single ip dose after HI, CA1) came out at 51.5±2.5; in test [1] (1 mg/kg E4 single ip dose after HI, CA2/CA3), 33.9±4.306; in test [1] (1 mg/kg E4 single ip dose after HI, cortex) it was 42.4±4.865; in test [1] (5 mg/kg E4 single ip dose after HI, CA1), 45.3±2.989; in test [1] (5 mg/kg E4 single ip dose after HI, CA2/CA3) it was 33.8±4.704; in test [1] (5 mg/kg E4 single ip dose after HI, cortex), 57.1±7.012. Further, the “number of intact cells per visual field” value in test [1] (10 mg/kg E4 single ip dose after HI, CA1) is given as 46.0±3.19; in test [1] (10 mg/kg E4 single ip dose after HI, CA2/CA3) it was 35.2±3.169; in test [1] (10 mg/kg E4 single ip dose after HI, cortex), 56.9±5.958; in test [1] (50 mg/kg E4 single ip dose after HI, CA1), 46.6±5.336; in test [1] (50 mg/kg E4 single ip dose after HI, CA2/CA3), 30.5±2.527; in test [1] (50 mg/kg E4 single ip dose after HI, cortex), 54.5±3.403. In the test with doublecortin (DCX), the “percentage of DCX positively stained cells” value turned out to be 60.29±5.66%.
